Test results: ChEMBL document CHEMBL1201862, “PubChem BioAssay data set” (2004)
The source made the active and inactive calls.

Columns and labels:
Caspase-3 = biological target: T1, Caspase-3 (Homo sapiens, UniProt P42574); assay: SAR Analysis of small molecule inhibitors of Sentrin-specific proteases (SENPs) using a Caspase-3 Selectivity assay. [Related pubchem assays (depositor defined):AID2540, AID2599, AID434973, AID489001]; assay type: functional
T1 sequence (P42574 whole entry): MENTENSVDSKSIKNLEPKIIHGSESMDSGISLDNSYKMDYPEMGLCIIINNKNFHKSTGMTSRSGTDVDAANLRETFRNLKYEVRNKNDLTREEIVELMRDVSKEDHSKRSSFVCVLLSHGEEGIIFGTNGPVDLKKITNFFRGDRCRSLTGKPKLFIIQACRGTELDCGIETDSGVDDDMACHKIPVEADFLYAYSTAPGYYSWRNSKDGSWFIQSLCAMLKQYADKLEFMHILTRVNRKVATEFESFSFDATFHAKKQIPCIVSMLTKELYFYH

[1] = biological target: T2, Sentrin-specific protease 8 (Homo sapiens, UniProt Q96LD8); assay: inhibition of human SENP8 cleavage activity – biochemical, luminescence, SAR follow-up (AID 504501); assay type: functional
T2 sequence (Q96LD8 whole entry): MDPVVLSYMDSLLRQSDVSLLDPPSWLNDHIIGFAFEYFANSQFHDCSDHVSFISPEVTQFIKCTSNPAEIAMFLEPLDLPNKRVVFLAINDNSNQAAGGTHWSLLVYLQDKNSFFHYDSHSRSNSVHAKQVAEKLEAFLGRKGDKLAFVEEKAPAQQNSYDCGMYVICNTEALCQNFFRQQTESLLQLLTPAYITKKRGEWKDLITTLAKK

[2] = biological target: T3, Sentrin-specific protease 6 (Homo sapiens, UniProt Q9GZR1); assay: SAR Analysis of small molecule inhibitors of Sentrin-specific protease 6 (SENP6) using a Luminescent assay. [Related pubchem assays (depositor defined):AID2582, AID2599]; assay type: functional
T3 sequence (Q9GZR1 whole entry): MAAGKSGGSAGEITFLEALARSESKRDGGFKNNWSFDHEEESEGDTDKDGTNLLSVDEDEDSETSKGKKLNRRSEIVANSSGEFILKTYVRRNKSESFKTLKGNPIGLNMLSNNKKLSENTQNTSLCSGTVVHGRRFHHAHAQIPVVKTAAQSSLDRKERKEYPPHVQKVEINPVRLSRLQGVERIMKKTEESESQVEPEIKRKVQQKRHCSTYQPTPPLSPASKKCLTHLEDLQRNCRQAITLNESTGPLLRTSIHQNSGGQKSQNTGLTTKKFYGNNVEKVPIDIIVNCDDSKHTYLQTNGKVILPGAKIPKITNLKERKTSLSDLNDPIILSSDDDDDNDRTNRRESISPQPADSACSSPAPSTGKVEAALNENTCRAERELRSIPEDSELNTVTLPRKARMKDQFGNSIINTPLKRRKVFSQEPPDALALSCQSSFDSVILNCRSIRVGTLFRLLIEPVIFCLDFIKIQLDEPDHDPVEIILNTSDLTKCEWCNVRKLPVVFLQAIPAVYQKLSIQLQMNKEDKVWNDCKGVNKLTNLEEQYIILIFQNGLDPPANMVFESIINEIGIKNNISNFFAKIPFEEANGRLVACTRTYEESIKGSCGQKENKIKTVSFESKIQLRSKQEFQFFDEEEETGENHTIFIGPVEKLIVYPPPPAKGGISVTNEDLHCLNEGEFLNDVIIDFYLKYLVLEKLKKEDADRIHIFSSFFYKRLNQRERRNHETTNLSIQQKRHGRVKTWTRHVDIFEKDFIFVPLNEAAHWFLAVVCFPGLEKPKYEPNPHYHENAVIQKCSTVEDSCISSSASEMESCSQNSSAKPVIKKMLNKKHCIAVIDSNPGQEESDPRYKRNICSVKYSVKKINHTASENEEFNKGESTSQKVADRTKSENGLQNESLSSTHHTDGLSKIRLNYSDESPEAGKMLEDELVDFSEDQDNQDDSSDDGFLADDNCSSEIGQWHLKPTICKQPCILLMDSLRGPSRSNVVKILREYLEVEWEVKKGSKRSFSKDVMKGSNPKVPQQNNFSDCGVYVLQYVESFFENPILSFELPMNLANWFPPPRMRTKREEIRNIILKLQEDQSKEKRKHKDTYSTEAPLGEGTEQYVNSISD

[3] = biological target: T4, Sentrin-specific protease 7 (Homo sapiens, UniProt Q9BQF6); assay: inhibition of human SENP7 cleavage activity – biochemical, luminescence, SAR follow-up (AID 504497); assay type: functional
T4 sequence (Q9BQF6 whole entry): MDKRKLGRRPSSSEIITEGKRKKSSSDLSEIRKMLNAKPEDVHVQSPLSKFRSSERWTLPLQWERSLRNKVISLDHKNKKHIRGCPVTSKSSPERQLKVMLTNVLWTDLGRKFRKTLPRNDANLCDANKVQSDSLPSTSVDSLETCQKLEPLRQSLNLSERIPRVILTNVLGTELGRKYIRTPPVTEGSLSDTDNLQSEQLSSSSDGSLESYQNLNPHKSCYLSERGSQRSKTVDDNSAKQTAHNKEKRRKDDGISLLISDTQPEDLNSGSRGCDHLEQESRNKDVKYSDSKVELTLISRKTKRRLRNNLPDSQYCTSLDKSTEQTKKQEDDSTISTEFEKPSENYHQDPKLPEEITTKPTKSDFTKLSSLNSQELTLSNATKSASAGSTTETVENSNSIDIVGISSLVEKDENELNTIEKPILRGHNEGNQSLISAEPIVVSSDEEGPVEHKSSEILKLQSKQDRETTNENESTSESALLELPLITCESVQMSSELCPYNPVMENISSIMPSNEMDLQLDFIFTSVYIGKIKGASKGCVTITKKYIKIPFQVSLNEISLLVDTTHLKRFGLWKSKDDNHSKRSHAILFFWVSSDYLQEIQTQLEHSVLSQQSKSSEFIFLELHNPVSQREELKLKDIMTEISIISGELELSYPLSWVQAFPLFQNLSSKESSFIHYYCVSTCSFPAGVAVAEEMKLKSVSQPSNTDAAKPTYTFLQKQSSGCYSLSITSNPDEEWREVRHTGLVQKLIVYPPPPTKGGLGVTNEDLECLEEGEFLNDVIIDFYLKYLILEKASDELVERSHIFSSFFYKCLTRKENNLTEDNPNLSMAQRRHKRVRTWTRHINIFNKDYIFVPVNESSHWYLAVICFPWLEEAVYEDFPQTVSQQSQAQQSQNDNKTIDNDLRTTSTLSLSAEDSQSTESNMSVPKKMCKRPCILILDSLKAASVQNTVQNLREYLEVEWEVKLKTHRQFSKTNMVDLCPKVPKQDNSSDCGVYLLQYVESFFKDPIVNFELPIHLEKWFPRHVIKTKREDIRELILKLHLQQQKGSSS

HEK293 [4] = assay: optical interference in Abeta FP readout, dose response, artefact control for IDE activator project, biochemical, fluorescence polarization (AID 588442); assay type: functional, cell-based; conditions: Homo sapiens
HEK293 [5] = assay: membrane integrity loss in HEK cells – cell-based, fluorescence, cytotoxicity control for IDE activator project, dose response (AID 588440); assay type: functional; conditions: Homo sapiens;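 further: cytotoxicity by LDH release measuring loss of membrane integrity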
Insulin-degrading enzyme [6] = biological target: T5, Insulin-degrading enzyme (Homo sapiens, UniProt P14735); assay: cellular IDE activation of Abeta substrate cleavage – fluorescence polarization, HEK cells, dose response (AID 588439); assay type: functional, cell-based
Insulin-degrading enzyme [7] = biological target: T5, Insulin-degrading enzyme; assay: recombinant IDE activation, cell-free – biochemical, fluorescence polarization, counter-screen for IDE activator project, dose response (AID 588681)

T5 sequence (P14735 whole entry): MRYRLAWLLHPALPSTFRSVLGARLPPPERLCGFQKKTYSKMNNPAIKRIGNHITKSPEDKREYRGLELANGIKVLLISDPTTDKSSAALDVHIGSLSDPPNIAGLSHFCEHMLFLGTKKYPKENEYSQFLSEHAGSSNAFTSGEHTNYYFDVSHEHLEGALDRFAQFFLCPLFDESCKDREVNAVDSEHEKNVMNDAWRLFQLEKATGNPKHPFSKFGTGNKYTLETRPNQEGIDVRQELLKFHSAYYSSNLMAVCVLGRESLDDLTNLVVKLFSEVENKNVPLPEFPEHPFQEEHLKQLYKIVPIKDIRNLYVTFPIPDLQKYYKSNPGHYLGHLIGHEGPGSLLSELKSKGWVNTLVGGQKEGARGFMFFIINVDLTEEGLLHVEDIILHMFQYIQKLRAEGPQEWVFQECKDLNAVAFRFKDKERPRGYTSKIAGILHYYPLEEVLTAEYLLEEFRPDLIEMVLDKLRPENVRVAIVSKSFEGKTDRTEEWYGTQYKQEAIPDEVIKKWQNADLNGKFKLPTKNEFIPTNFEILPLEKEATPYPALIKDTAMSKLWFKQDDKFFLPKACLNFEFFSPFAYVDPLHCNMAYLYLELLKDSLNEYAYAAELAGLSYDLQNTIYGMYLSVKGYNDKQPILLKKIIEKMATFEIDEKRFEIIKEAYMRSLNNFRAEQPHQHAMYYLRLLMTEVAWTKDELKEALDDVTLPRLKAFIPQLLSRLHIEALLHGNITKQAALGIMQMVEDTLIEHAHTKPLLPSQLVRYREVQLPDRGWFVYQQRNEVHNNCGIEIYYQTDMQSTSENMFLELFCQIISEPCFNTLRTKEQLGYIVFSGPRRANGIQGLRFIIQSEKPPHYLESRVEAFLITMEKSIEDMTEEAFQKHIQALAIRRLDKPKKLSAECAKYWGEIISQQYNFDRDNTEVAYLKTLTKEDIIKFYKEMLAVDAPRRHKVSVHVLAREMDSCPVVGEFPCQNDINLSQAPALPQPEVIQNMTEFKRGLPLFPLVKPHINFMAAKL

Row | Compound | IC50 (Caspase-3) | IC50 [1] | IC50 [2] | IC50 [3] | EC50 (HEK293 [4]) | IC50 (HEK293 [5]) | EC50 (Insulin-degrading enzyme [6]) | EC50 (Insulin-degrading enzyme [7])
1 | CCC(=O)c1ccc(OCC(=O)N(c2ccccc2)c2nc(-c3ccccc3)ns2)cc1 | > 99 µM (inactive) | 96.7 µM (active) | 65.1 µM (active) | 32 µM (active) | – | – | – | –
2 | O=C(O)c1ccccc1Nc1ccc([N+](=O)[O-])c2nonc12 | – | – | – | – | > 54.7 µM (inactive) | > 89.2 µM (inactive) | > 54.7 µM (inactive) | > 54.7 µM (inactive)
